Experimental data reported in patent US20090214445A1, “DELIVERY SYSTEMS FOR MANAGING RELEASE OF FUNCTIONAL INGREDIENTS IN AN EDIBLE COMPOSITION” (Cadbury Adams USA LLC, priority 2005, published 2009).

Assay: Discoloration (degradation) of sucralose during encapsulation
Assay type: physicochemical
Details: with polyvinyl acetate, 2% polyvinylpyrollidone, 1% magnesium stearate; tablets pressed at 25° C., heated to 80° C.
Description: As one example of a hydrophilic coating, sucralose was mixed with powdered polyvinyl acetate and 5% fat and extruded at 110° C. […] In an alternative encapsulation, sucralose was mixed with powdered polyvinyl acetate, 2% polyvinylpyrollidone and 1% magnesium stearate and pressed into tablets at 25° C. The tablets were then heated to 80° C., which softened the polymer and fused the polyvinylacetate with the sucralose. […] Thereafter, the tablets were cooled, ground and sized and analyzed. […] As another example, a polymer/sweetener matrix was prepared as described above in this paragraph. A solution of gum arabic was made and coated on the polymer/sweetener matrix particles using the method described in U.S. Pat. No. 3,196,827, the relevant portions of which are incorporated herein by reference. Coating levels were 20, 30, 40, and 50% for different samples. Chewing gums prepared with the coated polymer/sweetener matrix particles were chewed by a panel with bolus collection at 5, 10, 15, 20 minutes. Residual sucralose was analyzed in each chewed bolus.

Q: Which “discoloration of the sucralose” value does the source give for `OC[C@H]1O[C@H](O[C@]2(CCl)O[C@H](CCl)[C@@H](O)[C@@H]2O)[C@H](O)[C@@H](O)[C@H]1Cl` [sucralose] here?
A: Its value is “No discoloration”.
